In patent US20190169181A1, “FUMAGILLOL COMPOUNDS AND METHODS OF MAKING AND USING SAME” (Zafgen, Inc., priority 2016, published 2019):
Structures can show the parent of a compound that is named as a salt.

Legend:
recombinant human MetAP2 = target: T1, recombinant human MetAP2 (Homo sapiens, UniProt P50579); assay: Recombinant human MetAP2 enzyme inhibition assay (MAS peptide / amino acid oxidase / Amplex Ultrared readout); format: biochemical; conditions: Flag tagged human recombinant MetAP2, 25 minutes at 25° C.
T1 construct: Flag; made in house
Method: Compounds are tested for their capacity to inhibit recombinant human MetAP2 activity using the following assay.
Flag tagged Human recombinant MetAP2 expressed and isolated for use as the enzyme source. 10 mM stock solutions of compounds were prepared in 100% DMSO and further diluted in 100% DMSO required concentration to 1 mM stocks. The stock compound solutions and DMSO vehicle controls were diluted to target final compound concentrations using assay buffer to a final concentration of 50 mM HEPES containing 100 mM NaCl, pH adjusted to 7.5. The MAS peptide was formulated to a 7.5 mM stock in distilled water and prior to use further diluted 1:4. […] 40 μl of enzyme was mixed with 100 μl of MnCl2 then further diluted in assay buffer to a final concentration of 16 μg/ml. To test for compound effect on MetAP2 enzyme activity, 5 μl of test compound, 10 μl of MAS substrate/amino acid oxidase mixture, 10 μl of MetAP2 was added to test wells in a 384 well black plate with blank wells containing no enzyme, replaced with 10 μl of assay buffer. All compounds were tested in duplicate on two occasions on the same day.
The plate was sealed with a TopSeal A cover and mixed briefly on an orbital mixer at 900 rpm. The plate was incubated for a further 25 minutes at 25° C. A 5× stock of Amplex buffer was prepared (0.25 M sodium phosphate, pH 7.4) and stored at 4° C. […] Horse radish peroxidase was diluted in […] of Amplex buffer, 100 μl of this was combined with 50 μl of Amplex Ultrared in […] of 1× Amplex buffer to generate sufficient detection reagent for a 384 well plate. 25 μl detection reagent was added to each well of the test plate, which was re-sealed and mixed briefly on an orbital shaker. The plate was transferred to an Envision Multi-label reader and RFU measured corresponding to excitation 531 nm and emission 595 nm. At the end of the MetAP2 incubation 25 μl Amplex/HRP mixture per well was added and the plate read plate on a plate reader.

[1] = system: Diet Induced Obese (DIO) C57BL/6 mice; assay: 10 day DIO mouse model, weight loss vs. vehicle; format: in vivo; conditions: 240 h; for inhibition in vivo at 0.3 mg/kg: 0.3 mpk sc once a day for 10 days; for inhibition in vivo at 1 mg/kg: 1.0 mpk sc once a day for 10 days
Excerpt: The objective of this study design was to investigate the efficacy of disclosed compounds in a 10 day DIO mouse model. Effects on body weight, food intake, hematology and blood chemistry were the primary readouts of this study design. Male, Diet Induced Obese (DIO) C57BL/6 mice, 19-21 weeks of age (13-15 weeks on high fat diet) were ordered from a certified vendor and upon receipt were housed on irradiated corncob bedding in micro-isolator cages on a 12-hour light-dark cycle (0700-1900) at 68-74° F. and 30-70% humidity. Mice were fed Research Diets D12492 (60% Kcal fat, 20% Kcal carbohydrate and 20% protein) and provided water ad libitum. DIO mice were received and housed in the facility for approximately two weeks prior to the start of test article administration. On Day −4 or −3, mice were randomized into study groups based on body weight and body weights were continued to be recorded daily for the duration of the study. Daily food intake was assessed starting on Study Day −2 by weighing of the food with hopper together to avoid loss of food in transfer.
Compounds were formulated into a 100% DMSO stock (at 9 mg/mL) prior to the start, and further diluted into the target working concentration using the vehicle of 10% DMSO in water. Prior to test article administration, starting on Day −3 a dosing acclimation occurred with all animals receiving a subcutaneous injection of vehicle (10% DMSO) only for 3 days. Starting on Day 1, test compounds or vehicle were administered based on individual body weight, subcutaneously, once a day for 10 days. All mice were sacrificed on Day 11, 24 hours following the final dosing on Day 10. After sacrifice, whole blood was collected and analyzed for hematology and blood chemistry parameters.
Compounds were tested for weight loss vs. vehicle at 0.3 and 1.0 mpk sc (mg per kg animal weight delivered subcutaneously), and the results are shown in Table 2 below.

T1 sequence (P50579 whole entry): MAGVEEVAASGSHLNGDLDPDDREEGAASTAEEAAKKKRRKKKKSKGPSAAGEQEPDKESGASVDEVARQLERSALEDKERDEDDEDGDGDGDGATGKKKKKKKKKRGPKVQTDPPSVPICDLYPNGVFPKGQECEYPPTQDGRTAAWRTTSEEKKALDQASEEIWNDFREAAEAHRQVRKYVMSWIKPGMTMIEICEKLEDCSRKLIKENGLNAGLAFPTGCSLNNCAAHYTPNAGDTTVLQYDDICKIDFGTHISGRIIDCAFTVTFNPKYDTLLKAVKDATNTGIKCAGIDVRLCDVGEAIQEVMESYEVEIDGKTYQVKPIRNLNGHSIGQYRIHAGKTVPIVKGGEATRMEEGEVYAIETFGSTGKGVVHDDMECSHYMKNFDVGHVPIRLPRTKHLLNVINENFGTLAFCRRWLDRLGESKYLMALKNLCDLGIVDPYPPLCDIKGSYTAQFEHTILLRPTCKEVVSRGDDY

In the case of `CNc1nnc([C@@H](NC(=O)O[C@@H]2CC[C@]3(CO3)[C@@H]([C@@]3(C)O[C@@H]3CC=C(C)C)[C@@H]2OC)C(C)C)s1` [Example 8, (3R,4S,5S,6R)-5-methoxy-4-((2R,3R)-2-methyl-3-(3-methylbut-2-enyl)oxiran-2-yl)-1-oxaspiro[2.5]octan-6-yl (S)-2-methyl-1-(5-(methylamino)-1,3,4-thiadiazol-2-yl)propylcarbamate], the IC50 (recombinant human MetAP2) is reported as 50 to 500 nM and the inhibition in vivo at 0.3 mg/kg [1] is reported as 2%.

`CNc1nnc([C@H](NC(=O)O[C@@H]2CC[C@]3(CO3)[C@@H]([C@@]3(C)O[C@@H]3CC=C(C)C)[C@@H]2OC)C(C)C)s1` [Example 7, (3R,4S,5S,6R)-5-methoxy-4-((2R,3R)-2-methyl-3-(3-methylbut-2-enyl)oxiran-2-yl)-1-oxaspiro[2.5]octan-6-yl (R)-2-methyl-1-(5-(methylamino)-1,3,4-thiadiazol-2-yl)propylcarbamate] gave an IC50 (recombinant human MetAP2) of under 50 nM and an inhibition in vivo at 0.3 mg/kg [1] of 1.8%.

For `CO[C@@H]1[C@H](OC(=O)N[C@@H](Cc2nnc(N)s2)C(C)C)CC[C@]2(CO2)[C@H]1[C@@]1(C)O[C@@H]1CC=C(C)C` [Example 37, (3R,4S,5S,6R)-5-methoxy-4-((2R,3R)-2-methyl-3-(3-methylbut-2-enyl)oxiran-2-yl)-1-oxaspiro[2.5]octan-6-yl (S)-1-(5-amino-1,3,4-thiadiazol-2-yl)-3-methylbutan-2-ylcarbamate], the IC50 (recombinant human MetAP2) was 50 to 500 nM and the inhibition in vivo at 0.3 mg/kg [1] was 2.5%.

For `CO[C@@H]1[C@H](OC(=O)N(C)[C@H](c2cn(CC(C)C)cn2)C(C)C)CC[C@]2(CO2)[C@H]1[C@@]1(C)O[C@@H]1CC=C(C)C` [Example 40, (3R,4S,5S,6R)-5-methoxy-4-((2R,3R)-2-methyl-3-(3-methylbut-2-enyl)oxiran-2-yl)-1-oxaspiro[2.5]octan-6-yl ((S)-1-(1-isobutyl-1H-imidazol-4-yl)-2-methylpropyl)(methyl)carbamate], the IC50 (recombinant human MetAP2) was 50 to 500 nM and the inhibition in vivo at 0.3 mg/kg [1] was 2.3%.

With `CC[C@@H](Cc1noc(=O)[nH]1)NC(=O)O[C@@H]1CC[C@]2(CO2)[C@@H]([C@@]2(C)O[C@@H]2CC=C(C)C)[C@@H]1OC` [Example 29, (3R,4S,5S,6R)-5-methoxy-4-((2R,3R)-2-methyl-3-(3-methylbut-2-enyl)oxiran-2-yl)-1-oxaspiro[2.5]octan-6-yl (S)-1-(5-oxo-4,5-dihydro-1,2,4-oxadiazol-3-yl)butan-2-ylcarbamate] the IC50 (recombinant human MetAP2) was under 50 nM and the inhibition in vivo at 1 mg/kg [1] was 3.6%.

`CNc1nnc(C[C@@H](NC(=O)O[C@@H]2CC[C@]3(CO3)[C@@H]([C@@]3(C)O[C@@H]3CC=C(C)C)[C@@H]2OC)C(C)C)o1` [Example 33, (3R,4S,5S,6R)-5-methoxy-4-((2R,3R)-2-methyl-3-(3-methylbut-2-enyl)oxiran-2-yl)-1-oxaspiro[2.5]octan-6-yl (R)-3-methyl-1-(5-(methylamino)-1,3,4-oxadiazol-2-yl)butan-2-ylcarbamate] showed an IC50 (recombinant human MetAP2) of 50 to 500 nM, an inhibition in vivo at 0.3 mg/kg [1] of 3.7% and an inhibition in vivo at 1 mg/kg [1] of 1%.

For `CO[C@@H]1[C@H](OC(=O)N[C@H](c2cc(=O)cc[nH]2)C(C)C)CC[C@]2(CO2)[C@H]1[C@@]1(C)O[C@@H]1CC=C(C)C` [Example 20, (3R,4S,5S,6R)-5-methoxy-4-((2R,3R)-2-methyl-3-(3-methylbut-2-enyl)oxiran-2-yl)-1-oxaspiro[2.5]octan-6-yl (S)-2-methyl-1-(4-oxo-1,4-dihydropyridin-2-yl)propylcarbamate], the IC50 (recombinant human MetAP2) was under 50 nM, the inhibition in vivo at 0.3 mg/kg [1] was 3.4% and the inhibition in vivo at 1 mg/kg [1] was 3.3%.

`CO[C@@H]1[C@H](OC(=O)N[C@H](c2nnc(N)o2)C(C)C)CC[C@]2(CO2)[C@H]1[C@@]1(C)O[C@@H]1CC=C(C)C` [Example 1, (3R,4S,5S,6R)-5-methoxy-4-((2R,3R)-2-methyl-3-(3-methylbut-2-enyl)oxiran-2-yl)-1-oxaspiro[2.5]octan-6-yl (S)-1-(5-amino-1,3,4-oxadiazol-2-yl)-2-methylpropylcarbamate] was tested, and the IC50 (recombinant human MetAP2) was under 50 nM, the inhibition in vivo at 0.3 mg/kg [1] was 2.6% and the inhibition in vivo at 1 mg/kg [1] was 2.1%.

`CO[C@@H]1[C@H](OC(=O)N[C@H](c2nnc[nH]2)C(C)C)CC[C@]2(CO2)[C@H]1[C@@]1(C)O[C@@H]1CC=C(C)C` [Example 9, (3R,4S,5S,6R)-5-methoxy-4-((2R,3R)-2-methyl-3-(3-methylbut-2-enyl)oxiran-2-yl)-1-oxaspiro[2.5]octan-6-yl (S)-2-methyl-1-(4H-1,2,4-triazol-3-yl)propylcarbamate] showed an IC50 (recombinant human MetAP2) of under 50 nM and an inhibition in vivo at 0.3 mg/kg [1] of 2.1%.

With `CO[C@@H]1[C@H](OC(=O)N[C@H](c2cn(C[C@H]3CCN(CC(F)F)C3)cn2)C(C)C)CC[C@]2(CO2)[C@H]1[C@@]1(C)O[C@@H]1CC=C(C)C` [Example 18, (3R,4S,5S,6R)-5-methoxy-4-((2R,3R)-2-methyl-3-(3-methylbut-2-enyl)oxiran-2-yl)-1-oxaspiro[2.5]octan-6-yl (S)-1-(1-(((S)-1-(2,2-difluoroethyl)pyrrolidin-3-yl)methyl)-1H-imidazol-4-yl)-2-methylpropylcarbamate] the IC50 (recombinant human MetAP2) was 50 to 500 nM and the inhibition in vivo at 0.3 mg/kg [1] was -0.4%.

`CO[C@@H]1[C@H](OC(=O)N[C@H](c2c[nH]nn2)C(C)C)CC[C@]2(CO2)[C@H]1[C@@]1(C)O[C@@H]1CC=C(C)C` [Example 21, (3R,4S,5S,6R)-5-methoxy-4-((2R,3R)-2-methyl-3-(3-methylbut-2-enyl)oxiran-2-yl)-1-oxaspiro[2.5]octan-6-yl (S)-2-methyl-1-(1H-1,2,3-triazol-4-yl)propylcarbamate] showed an IC50 (recombinant human MetAP2) of under 50 nM.

In the case of `CO[C@@H]1[C@H](OC(=O)N[C@H](c2ccc(N3CC(F)(F)C3)nc2)C(C)C)CC[C@]2(CO2)[C@H]1[C@@]1(C)O[C@@H]1CC=C(C)C` [Example 25, (3R,4S,5S,6R)-5-methoxy-4-((2R,3R)-2-methyl-3-(3-methylbut-2-enyl)oxiran-2-yl)-1-oxaspiro[2.5]octan-6-yl (S)-1-(6-(3,3-difluoroazetidin-1-yl)pyridin-3-yl)-2-methylpropylcarbamate], the IC50 (recombinant human MetAP2) is reported as 50 to 500 nM and the inhibition in vivo at 0.3 mg/kg [1] is reported as 13%.

`CO[C@@H]1[C@H](OC(=O)N[C@H](c2cn(C[C@@H]3CCCN3C)cn2)C(C)C)CC[C@]2(CO2)[C@H]1[C@@]1(C)O[C@@H]1CC=C(C)C` [Example 14, (3R,4S,5S,6R)-5-methoxy-4-((2R,3R)-2-methyl-3-(3-methylbut-2-enyl)oxiran-2-yl)-1-oxaspiro[2.5]octan-6-yl (S)-2-methyl-1-(1-(((S)-1-methylpyrrolidin-2-yl)methyl)-1H-imidazol-4-yl)propylcarbamate formate] showed an IC50 (recombinant human MetAP2) of under 50 nM, an inhibition in vivo at 0.3 mg/kg [1] of 5.8% and an inhibition in vivo at 1 mg/kg [1] of 10.3%.

`CO[C@@H]1[C@H](OC(=O)N[C@H](c2noc(=O)[nH]2)C(C)C)CC[C@]2(CO2)[C@H]1[C@@]1(C)O[C@@H]1CC=C(C)C` [Example 10, (3R,4S,5S,6R)-5-methoxy-4-((2R,3R)-2-methyl-3-(3-methylbut-2-enyl)oxiran-2-yl)-1-oxaspiro[2.5]octan-6-yl (S)-2-methyl-1-(5-oxo-4,5-dihydro-1,2,4-oxadiazol-3-yl)propylcarbamate] was tested, and the IC50 (recombinant human MetAP2) was 50 to 500 nM, the inhibition in vivo at 0.3 mg/kg [1] was 4.1% and the inhibition in vivo at 1 mg/kg [1] was 2.9%.

`CO[C@@H]1[C@H](OC(=O)/C=C/c2ccc(OCCN(C)C)cc2)CC[C@]2(CO2)[C@H]1[C@@]1(C)O[C@@H]1CC=C(C)C` [A, [(3R,6R,7S,8S)-7-methoxy-8-[(2R,3R)-2-methyl-3-(3-methylbut-2-enyl)oxiran-2-yl]-2-oxaspiro[2.5]octan-6-yl] (E)-3-[4-[2-(dimethylamino)ethoxy]phenyl]prop-2-enoate, reference compound] showed an inhibition in vivo at 0.3 mg/kg [1] of 20% and an inhibition in vivo at 1 mg/kg [1] of 18%.
